Laboratory results published in the supplement of paper PMC10307832.

Key:
Assay in all cases: relative viability (nuclei count vs DMSO), 5 days (fraction); higher = more cells survive
4EGI-1 = compound: O=C(O)C(Cc1ccccc1[N+](=O)[O-])=NNc1nc(-c2ccc(Cl)c(Cl)c2)cs1 (mixture of isomers) [4EGI-1]
Outline: (§1)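 Vehicle-anchored 1536-well plates of lung cancer cell lines, held overnight at 37 °C, were pinned with five library-drug doses (not always all listed) spaced by √10. No medium change followed over the next 5 days, after which the cells were fixed, permeabilised and Hoechst-stained together and imaged at 4×. Nuclei were counted with MetaXpress, and viability is treated-well nuclei over vehicle-well nuclei, taken as a median across plates. Plates passed with control CV below 25% and at least one doubling.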

XMD8-85 = compound: CN1CCN(CC1)C2=CC(=C(C=C2)NC3=NC=C4C(=N3)N(C5=CC=CC=C5C(=O)N4C)C)OC [XMD8-85]
Outline: as §1

XMD8-85 + Phenformin = compound: CN1CCN(CC1)C2=CC(=C(C=C2)NC3=NC=C4C(=N3)N(C5=CC=CC=C5C(=O)N4C)C)OC [XMD8-85] + N=C(N)NC(=N)NCCc1ccccc1 [Phenformin] (partner 250 µM)
Outline: (§2)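 Values are medians from duplicate plates. Each reflects relative viability, defined as the nuclei count of treated wells over that of vehicle wells. Lung cancer cell lines in 1536-well plates were pin-tool dosed one day after seeding with one drug alone or with a fixed anchor-drug dose plus five library-drug doses (not always all listed) in √10 steps, then fixed, stained and imaged at 4× after 5 days.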

XMD8-85 + Crizotinib = compound: CN1CCN(CC1)C2=CC(=C(C=C2)NC3=NC=C4C(=N3)N(C5=CC=CC=C5C(=O)N4C)C)OC [XMD8-85] + C[C@@H](Oc1cc(-c2cnn(C3CCNCC3)c2)cnc1N)c1c(Cl)ccc(F)c1Cl [Crizotinib] (partner 1 µM)
Outline: as §2

## NCI-H1792
4EGI-1; 0.5 µM
  relative viability: 0.99
4EGI-1; 1.581 µM
  relative viability: 1.1
4EGI-1; 5 µM
  relative viability: 0.941
4EGI-1; 15.81 µM
  relative viability: 0.903
4EGI-1; 50 µM
  relative viability: 0.608
XMD8-85; 0.253 µM
  relative viability: 0.904
XMD8-85; 2.53 µM
  relative viability: 1.14
XMD8-85; 8 µM
  relative viability: 0.704
XMD8-85 + Phenformin; first compound 0.253 µM
  relative viability: 0.268
XMD8-85 + Phenformin; first compound 2.53 µM
  relative viability: 0.257
XMD8-85 + Phenformin; first compound 8 µM
  relative viability: 0.486
XMD8-85 + Crizotinib; first compound 0.08 µM
  relative viability: 0.883
XMD8-85 + Crizotinib; first compound 0.253 µM
  relative viability: 0.822
XMD8-85 + Crizotinib; first compound 2.53 µM
  relative viability: 0.852
XMD8-85 + Crizotinib; first compound 8 µM
  relative viability: 0.905
